Laboratory results reported in US9000159B2 (Glenmark Pharmaceuticals, S.A., priority 2009, dated 2015).

Target: T1, Human TRPA1 (Homo sapiens, UniProt O75762)
T1 construct: expressed in transfected cells; host or cells: CHO cells
Test: 45Calcium uptake assay: inhibition of AITC induced cellular uptake of radioactive calcium
Assay type: cell-based
Settings: AITC (30 μM) induced 45Ca uptake, Human TRPA1 expressing CHO cells; for inhibition at 1 µM: 1.0 μM test compound, read-out: Percentage inhibition at 1.0 μM; for inhibition at 10 µM: 10.0 μM test compound, read-out: Percentage inhibition at 10.0 μM; for IC50: read-out: Human IC50 value (range)
Text: The illustrative examples of the present invention are screened for TRPA1 activity according to a modified procedure described in (a) Tóth, A. et al., Life Sciences, 2003, 73, 487-498. (b) McNamara C, R. et al., Proc. Natl. Acad. Sci. U.S.A., 2007, 104, 13525-13530. The screening of the compounds can be carried out by other methods and procedures known to persons skilled in the art.
Screening for TRPA1 Antagonist Using the ^45Calcium Uptake Assay
The inhibition of TRPA1 receptor activation was measured as inhibition of allyl isothiocyanate (AITC) induced cellular uptake of radioactive calcium. Test compounds were dissolved in DMSO to prepare 10 mM stock solution and then diluted using plain medium with 0.1% BSA and 1.8 mM CaCl2 to get desired concentration. Final concentration of DMSO in the reaction was 0.5% (v/v). Human TRPA1 expressing CHO cells were grown in F-12 DMEM medium with 10% FBS, 1% penicillin-streptomycin solution, 400 μg/ml of G-418. Cells were seeded 24 h prior to the assay in 96 well plates so as to get ˜50,000 cells per well on the day of experiment. Cells were treated with test compounds for 10 min followed by addition of AITC at a final concentration of 30 μM and 5 μCi/ml ^45Ca^+2 for 3 min. Cells were washed and lysed using buffer containing 1% Triton X-100, 0.1% deoxycholate and 0.1% SDS. Radioactivity in the lysate was measured in Packard Top count after addition of liquid scintillant. Concentration response curves were plotted as a % of maximal response obtained in the absence of test antagonist. IC50 value was calculated from concentration response curve by nonlinear regression analysis using GraphPad PRISM software.

T1 sequence (O75762 whole entry): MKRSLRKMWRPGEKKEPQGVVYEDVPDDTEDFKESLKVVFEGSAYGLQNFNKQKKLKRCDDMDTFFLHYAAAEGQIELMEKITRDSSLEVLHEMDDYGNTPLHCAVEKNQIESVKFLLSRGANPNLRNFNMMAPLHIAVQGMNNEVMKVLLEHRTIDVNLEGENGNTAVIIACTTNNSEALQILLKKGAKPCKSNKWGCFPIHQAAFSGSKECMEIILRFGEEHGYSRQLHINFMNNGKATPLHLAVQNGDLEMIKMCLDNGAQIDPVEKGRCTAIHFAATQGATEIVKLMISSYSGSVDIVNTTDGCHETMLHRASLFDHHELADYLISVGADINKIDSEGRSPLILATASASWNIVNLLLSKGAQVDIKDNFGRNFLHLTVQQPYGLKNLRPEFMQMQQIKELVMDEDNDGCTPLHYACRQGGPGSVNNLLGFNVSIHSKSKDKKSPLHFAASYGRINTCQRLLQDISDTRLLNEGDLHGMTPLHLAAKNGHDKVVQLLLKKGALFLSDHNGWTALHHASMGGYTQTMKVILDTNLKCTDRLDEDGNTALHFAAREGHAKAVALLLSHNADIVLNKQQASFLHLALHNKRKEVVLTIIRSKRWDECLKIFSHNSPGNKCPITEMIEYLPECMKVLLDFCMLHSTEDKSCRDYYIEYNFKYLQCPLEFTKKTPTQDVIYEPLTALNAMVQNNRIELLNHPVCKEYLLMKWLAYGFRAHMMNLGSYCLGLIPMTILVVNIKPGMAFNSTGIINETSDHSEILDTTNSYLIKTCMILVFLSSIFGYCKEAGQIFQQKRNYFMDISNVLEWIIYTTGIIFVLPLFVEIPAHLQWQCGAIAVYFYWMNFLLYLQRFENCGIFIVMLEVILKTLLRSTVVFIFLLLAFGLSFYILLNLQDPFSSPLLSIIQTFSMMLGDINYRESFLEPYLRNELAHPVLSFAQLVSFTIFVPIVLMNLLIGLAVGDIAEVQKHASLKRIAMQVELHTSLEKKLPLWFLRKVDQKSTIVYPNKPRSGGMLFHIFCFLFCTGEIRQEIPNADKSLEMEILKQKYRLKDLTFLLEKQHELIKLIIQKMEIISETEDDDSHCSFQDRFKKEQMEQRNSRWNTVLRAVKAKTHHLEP

| SMILES | inhibition at 1 µM | inhibition at 10 µM | IC50 |
| --- | --- | --- | --- |
| Cn1c(=O)c2c(CC(=O)Nc3nc(-c4cc(F)c(OCC(F)(F)F)c(F)c4)cs3)cn(C)c2n(C)c1=O [Example 44, N-{4-[3,5-Difluoro-4-(2,2,2-trifluoroethoxy)phenyl]-1,3-thiazol-2-yl}-2-(1,3,7-trimethyl-2,4-dioxo-2,3,4,7-tetrahydro-1H-pyrrolo[2,3-d]pyrimidin-5-yl)acetamide] | 27.1% | 77% |  |
| CC(C)Cc1ccc(-c2csc(NC(=O)Cc3c4c(=O)n(C)c(=O)n(C)c4nn3C)n2)cc1 [Example 45, N-[4-(4-Isobutylphenyl)-1,3-thiazol-2-yl]-2-(2,5,7-trimethyl-4,6-dioxo-4,5,6,7-tetrahydro-2H-pyrazolo[3,4-d]pyrimidin-3-yl)acetamide] | 93.5% | 98.9% | 0.05 to 0.1 µM |
| Cn1nc2c(c1CC(=O)Nc1nc(-c3ccc(Cl)cc3)cs1)c(=O)n(C)c(=O)n2C [Example 46, N-[4-(4-Chlorophenyl)-1,3-thiazol-2-yl]-2-(2,5,7-trimethyl-4,6-dioxo-4,5,6,7-tetrahydro-2H-pyrazolo[3,4-d]pyrimidin-3-yl)acetamide] | 89.3% | 96.6% | > 0.1 µM |
| Cn1nc2c(c1CC(=O)Nc1nc(-c3ccc(C(F)(F)F)cc3)cs1)c(=O)n(C)c(=O)n2C [Example 47, N-{4-[4-(Trifluoromethyl)phenyl]-1,3-thiazol-2-yl}-2-(2,5,7-trimethyl-4,6-dioxo-4,5,6,7-tetrahydro-2H-pyrazolo[3,4-d]pyrimidin-3-yl)acetamide] | 99% | 99.5% | < 0.05 µM |
| Cn1nc2c(c1CC(=O)Nc1nc(-c3cccc(OC(F)(F)F)c3)cs1)c(=O)n(C)c(=O)n2C [Example 49, N-{4-[3-(Trifluoromethoxy)phenyl]-1,3-thiazol-2-yl}-2-(2,5,7-trimethyl-4,6-dioxo-4,5,6,7-tetrahydro-2H-pyrazolo[3,4-d]pyrimidin-3-yl)acetamide] | 52.3% | 88.5% |  |
| Cn1nc2c(c1CC(=O)Nc1nc(-c3ccc(F)cc3F)cs1)c(=O)n(C)c(=O)n2C [Example 50, N-[4-(2,4-Difluorophenyl)-1,3-thiazol-2-yl]-2-(2,5,7-trimethyl-4,6-dioxo-4,5,6,7-tetrahydro-2H-pyrazolo[3,4-d]pyrimidin-3-yl)acetamide] | 0% | 19.8% |  |
| Cn1nc2c(c1CC(=O)Nc1nc(-c3cc(F)cc(F)c3)cs1)c(=O)n(C)c(=O)n2C [Example 52, N-[4-(3,5-Difluorophenyl)-1,3-thiazol-2-yl]-2-(2,5,7-trimethyl-4,6-dioxo-4,5,6,7-tetrahydro-2H-pyrazolo[3,4-d]pyrimidin-3-yl)acetamide] | 37.8% | 64.8% |  |
| Cn1nc2c(c1CC(=O)Nc1nc(-c3cc(F)cc(C(F)(F)F)c3)cs1)c(=O)n(C)c(=O)n2C [Example 58, N-{4-[3-Fluoro-5-(trifluoromethyl)phenyl]-1,3-thiazol-2-yl}-2-(2,5,7-trimethyl-4,6-dioxo-4,5,6,7-tetrahydro-2H-pyrazolo[3,4-d]pyrimidin-3-yl)acetamide] | 94.6% | 99.2% | < 0.05 µM |
| Cn1nc2c(c1CC(=O)Nc1nc(-c3ccc(OC(F)F)c(F)c3)cs1)c(=O)n(C)c(=O)n2C [Example 61, N-{4-[4-(Difluoromethoxy)-3-fluorophenyl]-1,3-thiazol-2-yl}-2-(2,5,7-trimethyl-4,6-dioxo-4,5,6,7-tetrahydro-2H-pyrazolo[3,4-d]pyrimidin-3-yl)acetamide] | 86% | 98.3% | 0.05 to 0.1 µM |
| Cn1nc2c(c1CC(=O)Nc1nc(-c3ccc(C(F)(F)F)c(F)c3F)cs1)c(=O)n(C)c(=O)n2C [Example 62, N-{4-[2,3-difluoro-4-(trifluoromethyl)phenyl]-1,3-thiazol-2-yl}-2-(2,5,7-trimethyl-4,6-dioxo-4,5,6,7-tetrahydro-2H-pyrazolo[3,4-d]pyrimidin-3-yl)acetamide] | 90.3% | 95.8% | < 0.05 µM |
| Cn1nc2c(c1CC(=O)Nc1nc(-c3ccc(F)c(C(F)(F)F)c3F)cs1)c(=O)n(C)c(=O)n2C [Example 63, N-{4-[2,4-Difluoro-3-(trifluoromethyl)phenyl]-1,3-thiazol-2-yl}-2-(2,5,7-trimethyl-4,6-dioxo-4,5,6,7-tetrahydro-2H-pyrazolo[3,4-d]pyrimidin-3-yl)acetamide] | 95.1% | 99.7% | < 0.05 µM |
| Cn1nc2c(c1CC(=O)Nc1nc(-c3cc(F)c(OC(F)F)c(F)c3)cs1)c(=O)n(C)c(=O)n2C [Example 64, N-{4-[4-(Difluoromethoxy)-3,5-difluorophenyl]-1,3-thiazol-2-yl}-2-(2,5,7-trimethyl-4,6-dioxo-4,5,6,7-tetrahydro-2H-pyrazolo[3,4-d]pyrimidin-3-yl)acetamide] | 97.8% | 98.3% | < 0.05 µM |

Continued, values first:

| inhibition at 1 µM | inhibition at 10 µM | IC50 | SMILES |
| --- | --- | --- | --- |
| 92.8% | 97.5% | 0.05 to 0.1 µM | Cn1nc2c(c1CC(=O)Nc1nc(-c3cccc(C(F)(F)F)c3)cs1)c(=O)n(C)c(=O)n2C [Example 48, N-{4-[3-(Trifluoromethyl)phenyl]-1,3-thiazol-2-yl}-2-(2,5,7-trimethyl-4,6-dioxo-4,5,6,7-tetrahydro-2H-pyrazolo[3,4-d]pyrimidin-3-yl)acetamide] |
| 57.5% | 79.7% |  | Cn1nc2c(c1CC(=O)Nc1nc(-c3ccc(F)c(F)c3)cs1)c(=O)n(C)c(=O)n2C [Example 51, N-[4-(3,4-Difluorophenyl)-1,3-thiazol-2-yl]-2-(2,5,7-trimethyl-4,6-dioxo-4,5,6,7-tetrahydro-2H-pyrazolo[3,4-d]pyrimidin-3-yl)acetamide] |
| 97.2% | 98.6% | < 0.05 µM | Cn1nc2c(c1CC(=O)Nc1nc(-c3ccc(F)c(C(F)(F)F)c3)cs1)c(=O)n(C)c(=O)n2C [Example 53, N-{4-[4-Fluoro-3-(trifluoromethyl)phenyl]-1,3-thiazol-2-yl}-2-(2,5,7-trimethyl-4,6-dioxo-4,5,6,7-tetrahydro-2H-pyrazolo[3,4-d]pyrimidin-3-yl)acetamide] |
| 97.7% | 99.6% | < 0.05 µM | Cn1nc2c(c1CC(=O)Nc1nc(-c3ccc(C(F)(F)F)c(F)c3)cs1)c(=O)n(C)c(=O)n2C [Example 54, N-[4-(3-Fluoro-4-trifluoromethylphenyl)-1,3-thiazol-2-yl]-2-(2,5,7-trimethyl-4,6-dioxo-4,5,6,7-tetrahydro-2H-pyrazolo[3,4-d]pyrimidin-3-yl)acetamide] |
| 92.2% | 99.2% | 0.05 to 0.1 µM | Cn1nc2c(c1CC(=O)Nc1nc(-c3cccc(C(F)(F)F)c3F)cs1)c(=O)n(C)c(=O)n2C [Example 55, N-{4-[2-Fluoro-3-(trifluoromethyl)phenyl]-1,3-thiazol-2-yl}-2-(2,5,7-trimethyl-4,6-dioxo-4,5,6,7-tetrahydro-2H-pyrazolo[3,4-d]pyrimidin-3-yl)acetamide] |
| 96.2% | 98.2% | < 0.05 µM | Cn1nc2c(c1CC(=O)Nc1nc(-c3ccc(C(F)(F)F)cc3F)cs1)c(=O)n(C)c(=O)n2C [Example 56, N-{4-[2-Fluoro-4-(trifluoromethyl)phenyl]-1,3-thiazol-2-yl}-2-(2,5,7-trimethyl-4,6-dioxo-4,5,6,7-tetrahydro-2H-pyrazolo[3,4-d]pyrimidin-3-yl)acetamide] |
| 43% | 49.8% |  | Cn1nc2c(c1CC(=O)Nc1nc(-c3cc(C(F)(F)F)ccc3F)cs1)c(=O)n(C)c(=O)n2C [Example 57, N-{4-[2-Fluoro-5-(trifluoromethyl)phenyl]-1,3-thiazol-2-yl}-2-(2,5,7-trimethyl-4,6-dioxo-4,5,6,7-tetrahydro-2H-pyrazolo[3,4-d]pyrimidin-3-yl)acetamide] |
| 97.6% | 99.3% | < 0.05 µM | Cn1nc2c(c1CC(=O)Nc1nc(-c3ccc(OC(F)(F)F)c(F)c3)cs1)c(=O)n(C)c(=O)n2C [Example 59, N-{4-[3-Fluoro-4-(trifluoromethoxy)phenyl]-1,3-thiazol-2-yl}-2-(2,5,7-trimethyl-4,6-dioxo-4,5,6,7-tetrahydro-2H-pyrazolo[3,4-d]pyrimidin-3-yl)acetamide] |
| 93.4% | 97.2% | < 0.05 µM | Cn1nc2c(c1CC(=O)Nc1nc(-c3ccc(F)c(OC(F)(F)F)c3)cs1)c(=O)n(C)c(=O)n2C [Example 60, N-{4-[4-Fluoro-3-(trifluoromethoxy)phenyl]-1,3-thiazol-2-yl}-2-(2,5,7-trimethyl-4,6-dioxo-4,5,6,7-tetrahydro-2H-pyrazolo[3,4-d]pyrimidin-3-yl)acetamide] |
